Tests used:
Format in all cases: physicochemical
[1] = Fluorescence spectra of coelenteramide analogue alone (absence of apoaequorin); settings: analogue alone 8 μg/ml; for Coelenteramide (Buffer containing CaCl2) Fluorescence intensity (rlu) / Coelenteramide (Buffer containing CaCl2) Maximum fluorescence wavelength λmax (nm): 10 mM CaCl2 buffer pH 7.6, excitation 337 nm; for Coelenteramide (EDTA-containing buffer) Fluorescence intensity (rlu) / Coelenteramide (EDTA-containing buffer) Maximum fluorescence wavelength λmax (nm): 10 mM EDTA buffer pH 7.6, excitation 337 nm
Description: (§1) The fluorescence spectra were determined as follows. For coelenteramide analogue alone, the fluorescence was measured according to the procedures for semi-synthetic gFP and semi-synthetic BFP described in EXAMPLES 11 and 12, except for in the absence of apoaequorin, using 1 ml of 50 mM Tris-HCl (pH 7.6) containing 10 mM EDTA and 1 mM DTT or 1 ml of 50 mM Tris-HCl (pH 7.6) containing 10 mM CaCl2 and 1 mM DTT, in the final concentration of coelenteramide analogue adjusted to 8 μg/ml. The fluorescence spectra were measured at 25° C. in a quartz cell (10 mm light path length) using a Jasco FP-6500 spectrofluorometer (excitation wavelength: 337 nm, emission/excitation bandwidth: 3 nm; response: 0.5 sec, scan speed, 1000 nm/min).

apoaequorin [2] = biological target: T1, apoaequorin (Aequorea victoria, UniProt P07164); assay: Fluorescence spectra of semi-synthetic gFP (coelenteramide analogue + apoaequorin, EDTA); settings: 10 mM EDTA buffer, excitation 337 nm
T1 construct: purchased Chisso Corporation
Description: Semi-synthetic gFP was prepared from recombinant apoaequorin and coelenteramide analogues as follows. In 1 ml of 50 mM Tris-HC 1 (pH 7.6) containing 10 mM EDTA and 1 mM DTT, apoaequorin (0.2 mg) was mixed with 8 μl of a coelenteramide analogue (1 μg/μl in anhydrous methanol). The mixture was allowed to stand 4° C. for 16 hours to prepare semi-synthetic gFP-like protein (hereinafter sometimes simply referred to as “semi-synthetic gFP”).
as §1

apoaequorin [3] = biological target: T1, apoaequorin; assay: Fluorescence spectra of semi-synthetic BFP (coelenteramide analogue + apoaequorin, CaCl2); settings: 10 mM CaCl2 buffer, excitation 337 nm
Description: Semi-synthetic gFP was prepared from recombinant apoaequorin and coelenteramide analogues as follows. In 1 ml of 50 mM Tris-HC 1 (pH 7.6) containing 10 mM CaCl2 and 1 mM DTT, apoaequorin (0.2 mg) was mixed with 8 μl of a coelenteramide analogue (1 μg/μl in anhydrous methanol). The mixture was allowed to stand at 4° C. for 16 hours to prepare semi-synthetic BFP-like protein (hereinafter sometimes simply referred to as “semi-synthetic BFP”).
as §1

T1 sequence (P07164 other isoform, or with tags, fused parts or gaps with the stated changes): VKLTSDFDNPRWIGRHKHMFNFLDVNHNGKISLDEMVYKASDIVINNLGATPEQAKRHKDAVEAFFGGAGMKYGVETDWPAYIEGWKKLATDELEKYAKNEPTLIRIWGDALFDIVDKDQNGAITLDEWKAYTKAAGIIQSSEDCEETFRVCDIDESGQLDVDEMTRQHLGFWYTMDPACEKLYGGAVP

SMILES | Coelenteramide (Buffer containing CaCl2) Fluorescence intensity (rlu) [1] [rlu] | Coelenteramide (Buffer containing CaCl2) Maximum fluorescence wavelength λmax (nm) [1] [nm] | Coelenteramide (EDTA-containing buffer) Fluorescence intensity (rlu) [1] [rlu] | Coelenteramide (EDTA-containing buffer) Maximum fluorescence wavelength λmax (nm) [1] [nm] | Semi-synthetic gFP (EDTA-containing buffer) Fluorescence intensity (rlu) (apoaequorin [2]) | Semi-synthetic gFP (EDTA-containing buffer) Maximum fluorescence wavelength λmax (nm) (apoaequorin [2]) | Fluorescence intensity (apoaequorin [3]) [rlu] | Semi-synthetic BFP (Buffer containing CaCl2) Maximum fluorescence wavelength λmax (nm) (apoaequorin [3])
O=C(Cc1ccc(O)cc1)Nc1ncc(-c2ccc(O)cc2)nc1-c1csc2ccccc12 [Compound 4i, N-[3-(Benzo[b]thiophen-3-yl)-5-(4-hydroxyphenyl)pyrazin-2-yl]-2-(4-hydroxyphenyl) acetamide] | 11.8 | 468.0 | 12.1 | 471.5 | 106.5 | 512.5 | 80.0 | 494.0
O=C(Cc1ccc(O)cc1)Nc1ncc(-c2ccc(O)cc2)nc1-c1ccc(O)cc1 [Compound 4j, N-[3,5-Bis(4-hydroxyphenyl)pyrazin-2-yl]-2-(4-hydroxyphenyl)acetamide] | 22.4 | 481.0 | 22.5 | 482.5 | 69.7 | 492.5 | 100.5 | 489.0
O=C(Cc1ccc(O)cc1)Nc1ncc(-c2ccc(O)cc2)nc1-c1cc2sccc2s1 [Compound 4k, 2-(4-Hydroxyphenyl)-N-[5-(4-hydroxyphenyl)-3-(thieno[3,2-b]thiophen-2-yl)pyrazin-2-yl]acetamide] | 9.7 | 491.0 | 10.3 | 487.5 | 139.9 | 532.0 | 148.2 | 538.5
O=C(Cc1ccc(O)cc1)Nc1ncc(-c2ccc(O)cc2)nc1-c1cc2sc3ccsc3c2s1 [Compound 4l, 2-(4-Hydroxyphenyl)-N-[5-(4-hydroxyphenyl)-3-(thieno[3,2-b:2′,3′-d]thiophen-2-yl)pyrazin-2-yl]acetamide] | 8.8 | 523.0 | 9.3 | 523.5 | 140.5 | 524.5 | 63.5 | 468.0
O=C(Cc1ccc(O)cc1)Nc1ncc(-c2ccc(O)cc2)nc1-c1ccc([N+](=O)[O-])cc1 [Compound 4o, 2-(4-Hydroxyphenyl)-N-[5-(4-hydroxyphenyl)-3-(4-nitrophenyl)pyrazin-2-yl]acetamide] | 2.1 | 478.5 | 2.1 | 482.5 | 3.4 | 485.0 | 3.9 | 477.5
O=C(Cc1ccc(O)cc1)Nc1ncc(-c2ccc(O)cc2)nc1C#Cc1ccccc1 [Compound 4p, 2-(4-Hydroxyphenyl)-N-[5-(4-hydroxyphenyl)-3-(phenylethynyl)pyrazin-2-yl]acetamide] | 5.4 | 484.5 | 5.3 | 476.0 | 21.1 | 523.0 | 70.0 | 548.5
O=C(Cc1ccc(O)cc1)Nc1ncc(-c2ccc(O)cc2)nc1CCc1ccccc1 [Compound 4r, 2-(4-Hydroxyphenyl)-N-[5-(4-hydroxyphenyl)-3-phenethylpyrazin-2-yl]acetamide] | 10.2 | 483.0 | 10.3 | 481.0 | 176.4 | 468.0 | 159.9 | 468.0
O=C(Cc1ccc(O)cc1)Nc1cnc(-c2ccc(O)cc2)cn1 [Compound 4s, 2-(4-Hydroxyphenyl)-N-[5-(4-hydroxyphenyl)pyrazin-2-yl]acetamide] | 2.0 | 468.5 | 1.9 | 457.5 | 106.4 | 460.0 | 22.1 | 408.5
Oc1ccc(NC(=S)Nc2ncc(-c3ccc(O)cc3)nc2Cc2ccccc2)cc1 [Compound 4v, 1-[3-Benzyl-5-(4-hydroxyphenyl)pyrazin-2-yl]-3-(4-hydroxyphenyl)thiourea] | 1.4 | 466.0 | 1.4 | 484.0 | 3.6 | 491.0 | 3.3 | 430.5
CC(C(=O)Nc1ncc(-c2ccc(O)cc2)nc1Cc1ccccc1)c1ccc(O)cc1 (centres unmarked) [Compound 4w, N-[3-Benzyl-5-(4-hydroxyphenyl)pyrazin-2-yl]-2-(4-hydroxyphenyl)propanamide] | 1.4 | 450.5 | 1.3 | 451.0 | 54.6 | 487.0 | 181.4 | 466.0

From US9056840B2, “Coelenterazine analogues and coelenteramide analogues” (JNC Corporation, priority 2010, dated 2015)
